Assay results taken from patent publication US6649626B1, “N-substituted 1-(lactone) isoquinolones for treating nervous disorders” (Centre National de la Recherche Scientifique (CNRS), priority 1999, dated 2003).
Read-outs that look alike come from different tables or passages of the source.

Key:
[1] = biological target: T1, α1β2γ2 subtype of the GABA receptor (Rattus norvegicus, UniProt P18508+P62813+P63138); assay: Electrophysiology: modulation of GABA currents in Xenopus oocytes expressing recombinant GABA-A receptors; assay type: cell-based; conditions: for % stimulation of the GABA currents (100 μM): 100 μM compound with GABA; for % stimulation of the GABA currents (100 μM) / % stimulation of the GABA currents: α1β2γ2 in oocytes
T1 construct: expressed in transfected cells; host or cells: Xenopus laevis oocytes (cRNA injection)
T1 sequence (P62813 28-455): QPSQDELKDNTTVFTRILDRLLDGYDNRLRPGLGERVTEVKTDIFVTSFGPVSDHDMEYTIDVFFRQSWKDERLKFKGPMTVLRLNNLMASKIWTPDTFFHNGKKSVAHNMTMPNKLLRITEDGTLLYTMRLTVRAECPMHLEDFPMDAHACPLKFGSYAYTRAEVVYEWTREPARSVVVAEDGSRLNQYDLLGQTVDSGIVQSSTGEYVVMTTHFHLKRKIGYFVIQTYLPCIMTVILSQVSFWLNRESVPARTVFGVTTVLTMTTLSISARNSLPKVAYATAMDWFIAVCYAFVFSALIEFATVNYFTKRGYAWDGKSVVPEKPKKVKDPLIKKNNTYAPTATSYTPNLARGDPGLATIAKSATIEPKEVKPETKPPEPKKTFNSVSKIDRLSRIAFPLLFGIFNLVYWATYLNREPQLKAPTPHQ
T1 sequence (P63138 25-474 limits assumed): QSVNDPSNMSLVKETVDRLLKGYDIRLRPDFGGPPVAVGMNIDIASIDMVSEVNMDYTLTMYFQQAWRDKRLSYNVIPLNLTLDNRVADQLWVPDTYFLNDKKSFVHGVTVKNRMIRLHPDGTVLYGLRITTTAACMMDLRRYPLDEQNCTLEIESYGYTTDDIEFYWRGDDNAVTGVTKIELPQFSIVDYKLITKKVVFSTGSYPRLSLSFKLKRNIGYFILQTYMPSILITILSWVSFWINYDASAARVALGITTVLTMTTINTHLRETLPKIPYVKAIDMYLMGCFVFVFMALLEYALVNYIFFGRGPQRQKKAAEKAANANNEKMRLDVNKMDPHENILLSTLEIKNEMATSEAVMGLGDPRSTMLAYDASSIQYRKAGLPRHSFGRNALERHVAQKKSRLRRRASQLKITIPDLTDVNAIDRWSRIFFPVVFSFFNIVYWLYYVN
T1 sequence (P18508 39-466): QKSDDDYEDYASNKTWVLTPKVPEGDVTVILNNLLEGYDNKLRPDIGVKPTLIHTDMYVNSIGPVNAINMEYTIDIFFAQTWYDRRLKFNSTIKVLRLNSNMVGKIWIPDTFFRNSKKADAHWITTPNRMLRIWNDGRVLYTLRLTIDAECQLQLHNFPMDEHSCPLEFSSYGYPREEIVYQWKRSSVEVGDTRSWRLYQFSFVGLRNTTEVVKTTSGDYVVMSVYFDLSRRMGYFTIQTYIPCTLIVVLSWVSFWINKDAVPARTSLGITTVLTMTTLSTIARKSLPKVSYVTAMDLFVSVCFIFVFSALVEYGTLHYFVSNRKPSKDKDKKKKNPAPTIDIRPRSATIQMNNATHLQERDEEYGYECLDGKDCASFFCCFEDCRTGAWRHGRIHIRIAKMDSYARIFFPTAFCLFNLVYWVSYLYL

[2] = biological target: picrotoxin-binding site of the GABA-A receptor; assay: Displacement of 35S-TBPS from brain membranes; set-up: species or system rats; conditions: for IC50: tissue not stated
[3] = test system: GABA-binding site of the GABA-A receptor; assay: Displacement of tritiated muscimol from brain membranes; conditions: for Muscimol: stimulation: stimulation instead of displacement
[4] = biological target: Ro15-4513 binding (GABA-A receptor); assay: Ro15-4513 displacement; conditions: for Ro15-4513 displacement: 100 μM
[5] = biological target: T2, benzodiazepine-binding site of the GABA-A receptor (Rattus norvegicus, UniProt P18508+P62813); assay: Displacement of tritiated flunitrazepam from brain membranes; conditions: for inhibition at 100 µM: read-out: Inhibition of the tritiated ligands % Flu (100 μM)
T2 construct: IC50 Flu / BZ receptor; other: cerebellum (ce); other: cerebellum (ce; BZ1 subtype); other: 10 μM; cerebellum; other: 100 μM; other: 0.5 μM
T2 sequence (P62813 28-455): as the sequence (P62813 28-455) above
T2 sequence (P18508 39-466): as the sequence (P18508 39-466) above
T2 sequence (P63138 26-474 partner): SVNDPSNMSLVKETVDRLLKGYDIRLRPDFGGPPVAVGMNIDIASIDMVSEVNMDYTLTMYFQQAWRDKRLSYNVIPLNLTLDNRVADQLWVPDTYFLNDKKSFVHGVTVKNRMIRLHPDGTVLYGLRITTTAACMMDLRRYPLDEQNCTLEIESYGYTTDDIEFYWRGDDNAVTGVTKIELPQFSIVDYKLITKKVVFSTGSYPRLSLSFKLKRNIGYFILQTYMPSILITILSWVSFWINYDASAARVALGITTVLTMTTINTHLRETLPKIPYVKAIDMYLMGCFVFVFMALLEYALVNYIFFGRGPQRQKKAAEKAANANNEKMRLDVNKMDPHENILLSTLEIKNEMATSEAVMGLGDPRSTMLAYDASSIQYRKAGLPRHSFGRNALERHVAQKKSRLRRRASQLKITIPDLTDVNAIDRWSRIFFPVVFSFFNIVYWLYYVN

[6] = biological target: benzodiazepine-binding site of the GABA-A receptor; assay: as above; conditions: for IC50: read-out: IC50 Flu / BZ receptor
[7] = biological target: T3, picrotoxin-binding site of the GABA-A receptor; assay: Displacement of 35S-TBPS from brain membranes; set-up: species or system rats; conditions: cerebellum
T3 construct: other: cerebellum

[8] = biological target: T4, picrotoxin-binding site of the GABA-A receptor; assay: Displacement of 35S-TBPS from brain membranes; set-up: species or system rats; conditions: cortex
T4 construct: other: cortex

[9] = test system: recombinant receptors of the composition of αxβ2γ2 subunits in which x=1, 2, 3, 5, 6; assay: Stimulation of the GABA current at recombinant receptors with other α subunits; assay type: cell-based; conditions: α1 replaced by the α2, α3, α5 or α6 subunit

SMILES: O=C1CC[C@H]([C@H]2c3ccccc3CCN2S(=O)(=O)c2ccccc2)O1 (racemic) [Compound 65, (±)-(1R,2′R)-2-N-Benzenesulfonyl-1-(2,3,4,5-tetrahydro-5-oxo-2-furyl)-1,2,3,4-tetrahydroisoquinoline]
- % stimulation of the GABA currents (100 μM) [1]: +423%
- % stimulation of the GABA currents (100 μM) ([1]; listed as (+/−) 65): +423%
- IC50 [2]: ~100 µM
- Muscimol: stimulation ([3]; 100 μM): weak stimulation
- IC50 [4]: 20 µM
- melting point: 177 to 179 °C

SMILES: O=C1CCC(C2c3ccccc3CCN2S(=O)(=O)c2ccc(OC(F)(F)F)cc2)O1 (mixture of isomers) [Compound 71]
- IC50 ([5]; tissue not stated, read-out: IC50 Flu / BZ receptor): > 100 µM
- Muscimol: stimulation ([3]; 100 μM): weak stimulation at 100 μM in the cortex alone
- IC50 [4]: > 100 µM

SMILES: O=C1CCC(C2c3ccccc3CCN2S(=O)(=O)c2ccc(C(F)(F)F)cc2)O1 (mixture of isomers) [Compound 70]
- IC50 ([6]; tissue not stated): > 100 µM
- Muscimol: stimulation ([3]; 100 μM): weak stimulation at 100 μM in the cortex alone
- IC50 [4]: > 100 µM

SMILES: COc1cc2c(cc1OC)C(C1CCC(=O)O1)N(C)CC2 (racemic) [Compound 28]
- % stimulation of the GABA currents ([1]; 200 μM compound): 200 μM = +2%
- inhibition at 100 µM ([5]; tissue not stated): 50%
- Ro15-4513 displacement [4]: Ro15-4513 displacement 100 μM = 50%

SMILES: COc1cc2c(cc1OC)[C@H]([C@@H]1CCC(=O)O1)NCC2 (racemic)
- melting point: 119 °C

SMILES: O=C1CCC(C2c3ccccc3C=CN2C(=O)OCc2ccccc2)O1 (racemic) [Compound 75, (±)-(1R,2′R)-2-N-Benzyloxycarbonyl-1-(2,3,4,5-tetrahydro-5-oxo-2-furyl)-1,2-dihydroisoquinoline]
- % stimulation of the GABA currents ([1]; 10 μM compound): +148 ± 21% (10 μM)
- melting point: 109 to 111 °C

SMILES: O=C1C=C[C@@H]([C@H]2c3ccccc3CCN2C(=S)Oc2ccccc2)O1 (racemic) [Compound 64]
- % stimulation of the GABA currents (100 μM) [1]: +265 ± 50%
- inhibition at 100 µM ([5]; tissue not stated): 0%
- IC50 [7]: 30 µM
- IC50 [8]: > 100 µM
- Displacement of muscimol ([3]; 100 μM): Muscimol: 100 μM = 0% Ro15-4513: 100 μM = 0%
- Ro15-4513 displacement [4]: Muscimol: 100 μM = 0% Ro15-4513: 100 μM = 0%

SMILES: Cc1ccc(S(=O)(=O)N2CCc3ccccc3C2[C@H]2CCC(=O)O2)cc1 (mixture of isomers) [Compound 67, (±)-(1R,2′R)-1-(2,3,4,5-Tetrahydro-5-oxo-2-furyl)-2-N-p-toluenesulfonyl-1,2,3,4-tetrahydroisoquinoline]
- % stimulation of the GABA currents ([1]; 0.1 μM compound): 7 ± 5%
- % stimulation of the GABA currents (100 μM) [1]: +579 ± 106%
- % stimulation of the GABA currents (100 μM) ([1]; listed as (+/−) 67): +579%
- Inhibition of the tritiated ligands % Flu ([5]; 10 μM, tissue not stated): 20%
- Inhibition of the tritiated ligands % Flu (100 μM) ([5]; cerebellum): 50%
- Inhibition of the tritiated ligands % Flu (100 μM) ([5]; cortex): 30%
- Inhibition of the tritiated ligands % Flu ([6]; 0.5 μM, tissue not stated): 0%
- Muscimol: stimulation ([3]; 100 μM): Muscimol: 5-10% stimulation at 100 μM

SMILES: O=C1C=CC(C2c3ccccc3CCN2C(=O)Oc2ccccc2)O1 (racemic) [Compound 58]
- % stimulation of the GABA currents ([1]; 0.1 μM compound): 0%
- % stimulation of the GABA currents (100 μM) [1]: +159 ± 8%
- Inhibition of the tritiated ligands % Flu (100 μM) ([5]; tissue not stated): 70%
- Inhibition of the tritiated ligands % Flu ([6]; 0.5 μM, tissue not stated): 0%
- Inhibition of the tritiated ligands % Flu ([6]; 10 μM, tissue not stated): 45%
- Inhibition of the tritiated ligands % TBPS ([2]; 10 μM): 0%
- Displacement of muscimol ([3]; 100 μM): 100 μM = 0%

SMILES: COc1ccc(S(=O)(=O)N2CCc3ccccc3C2C2CCC(=O)O2)cc1 (mixture of isomers) [Compound 72]
- Inhibition of the tritiated ligands % Flu (100 μM) ([5]; tissue not stated): 0%
- IC50 [2]: ~100 µM
- Displacement of muscimol ([3]; 100 μM): Muscimol: 100 μM = 0% Ro15-4513: 100 μM = 0%
- Ro15-4513 displacement [4]: Muscimol: 100 μM = 0% Ro15-4513: 100 μM = 0%

SMILES: O=C1CCC(C2c3ccccc3CCN2S(=O)(=O)c2ccc(Cl)cc2)O1 (racemic) [Compound 66, (±)-(1R,2′R)-1-(2,3,4,5-Tetrahydro-5-oxo-2-furyl)-2-N-p-chlorobenzenesulfonyl-1,2,3,4-tetrahydroisoquinoline]
- % stimulation of the GABA currents (100 μM) [1]: +479%
- % stimulation of the GABA currents (100 μM) ([1]; listed as (+/−) 66): +479%
- melting point: 145 to 147 °C

SMILES: O=C1C=C[C@H]([C@H]2c3ccccc3CCN2C(=S)Oc2ccccc2)O1 (racemic) [Compound 63]
- % stimulation of the GABA currents (100 μM) [1]: +155 ± 47%
- inhibition at 100 µM ([5]; tissue not stated): 0%
- Displacement of muscimol ([3]; 100 μM): Muscimol: 100 μM = 0% Ro15-4513: 100 μM = 0%
- Ro15-4513 displacement [4]: Muscimol: 100 μM = 0% Ro15-4513: 100 μM = 0%

SMILES: O=C1C=CC(C2c3ccccc3CCN2C(=O)Cc2ccccc2)O1 (racemic) [Compound 55]
- % stimulation of the GABA currents ([1]; 0.1 μM compound): 0%
- % stimulation of the GABA currents (100 μM) [1]: +33 ± 4%
- Inhibition of the tritiated ligands % Flu (100 μM) ([5]; tissue not stated): 95%
- Inhibition of the tritiated ligands % Flu ([6]; 0.5 μM, cerebellum): 30%
- Inhibition of the tritiated ligands % Flu ([6]; 0.5 μM, cortex): 20%
- Inhibition of the tritiated ligands % Flu ([6]; 10 μM, cerebellum): 80%
- Inhibition of the tritiated ligands % Flu ([6]; 10 μM, cortex): 70%
- Displacement of muscimol ([3]; 100 μM): 100 μM = 0%

SMILES: COc1cc2c(cc1OC)C([C@H]1C=CC(=O)O1)N(C(=O)OCc1ccccc1)CC2 (mixture of isomers) [Compound 32a, (±)-(1R,2′R)-1-(2,5-Dihydro-5-oxo-2-furyl)-2-N-benzyloxycarbonyl-6,7-dimethoxy-1,2,3,4-tetrahydroisoquinoline]
- stimulation of the GABA currents (in words) ([1]; α1β2γ2 receptor): only weakly stimulates
- Displacement of muscimol ([3]; concentration not given): Displacement of muscimol = 0%
- stimulation when the α1 subunit is replaced [9]: greatly increased

SMILES: O=C1CCC(C2c3ccccc3CCN2C(=O)OCc2ccccc2)O1 (racemic) [Compound 54, (±)-(1R,2′R)-2-N-Benzyloxycarbonyl-1-(2,3,4,5-tetrahydro-5-oxo-2-furyl)-1,2,3,4-tetrahydroisoquinoline]
- % stimulation of the GABA currents ([1]; 0.1 μM compound): +4 ± 10%
- % stimulation of the GABA currents (100 μM) [1]: +351 ± 17%
- % stimulation of the GABA currents (100 μM) ([1]; listed as (+/−) 54): +351%
- % of the stimulation inhibited by flumazenil ([1]; stimulation by 10 μM compound, 1 μM flumazenil, α1β2γ2): 78%
- IC50 ([6]; cerebellum (ce; BZ1 subtype)): 0.04 µM
- IC50 ([6]; cortex (co = whole brain without cerebellum; BZ2 subtype)): 0.15 µM
- Inhibition of the tritiated ligands % TBPS ([2]; 10 μM): 10 μM = 0%
- IC50 [4]: 0.2 µM

SMILES: O=C1C=CC(C2c3ccccc3CCN2C(=O)OCc2ccccc2)O1 (racemic) [Compound 50]
- % stimulation of the GABA currents ([1]; 0.1 μM compound): +26 ± 6%
- % stimulation of the GABA currents (100 μM) [1]: +281 ± 35%
- blockade of the stimulation by flumazenil (in words) ([1]; printed after the 0.1 μM value): completely blocked by flumazenil
- Inhibition of the tritiated ligands % Flu ([5]; 0.5 μM, tissue not stated): 55%
- Inhibition of the tritiated ligands % Flu ([5]; 10 μM, tissue not stated): 90%
- Inhibition of the tritiated ligands % Flu (100 μM) ([5]; tissue not stated): 100%
- Inhibition of the tritiated ligands % TBPS ([2]; 0.5 μM): 5%
- Inhibition of the tritiated ligands % TBPS ([2]; 10 μM): 30%
- Displacement of muscimol ([3]; 100 μM): 100 μM = 0%
